Laboratory results: US11826352B2, “Edaravone suspension for oral administration” (MITSUBISHI TANABE PHARMA CORPORATION, priority 2018, dated 2023)

Assays:
[1] = Transmission scattering light intensity test; format: physicochemical; settings: 40 mL 0.1% (w/v) additive solution + 840 mg edaravone particles; for Dispersion State of Edaravone: stirred 30 minutes or more; for Transmission Scattering light Intensity ΔT %: TURBISCAN Tower, 25° C., height 39-40 mm, after 10 minutes
Protocol: Further, here, the transmission scattering light intensity means a value obtained after 10 minutes after starting a measurement of a transmission scattering light intensity, the measurement being performed by filling 20 mL of the above liquid in a cylindrical sample bottle (inner diameter: 25 mm×outer diameter: 27.5 mm×height: 72 mm) and by measuring the transmission scattering light intensity at a height of 39-40 mm of the sample bottle using a TURBISCAN Tower (manufactured Formulaction) (25° C.).
0.1% (w/v) aqueous solutions of drug product additives described in the following table that are substances having a function capable of dispersing solid particles in a liquid were prepared at a room temperature.
40 mL of each of the aqueous solutions of the additives was added to 840 mg of edaravone particles (edaravone powder, D50: 37 μm, D90: 143 μm) and the mixture was stirred using a stirrer for 30 minutes or more, and a dispersed state of the edaravone particles was confirmed.
Further, 20 mL of the dispersion liquid obtained above was filled into a sample bottle (inner diameter: 25 mm×outer diameter: 27.5 mm×height: 72 mm), and measurement of a transmission scattering light intensity ΔT % at a height of 39-40 mm of the sample bottle was started using a TURBISCAN Tower (manufactured by Formulaction) (with a temperature set to 25° C.), and a value obtained after 10 minutes after the start of the measurement was defined as the transmission scattering light intensity ΔT % for each additive. The transmission scattering light intensities ΔT % of the additives and the dispersion state of the edaravone particles in the additive solutions are shown in the following table.

[2] = Contact angle test; format: physicochemical; settings: edaravone saturated aqueous solution with 0.1% (w/v) additive on edaravone tablet; 1 μL, after 3.1 seconds
Protocol: Here, “80 degrees or less” means a range of 0-80 degrees. […] Here, the edaravone tablet refers to an edaravone tablet obtained by compression-molding 120 mg of edaravone (D50: 37 D90: 143 μm) in a flat punch having a diameter of 8 mm at a tableting pressure of 800 kg, and measurement of the contact angle refers to a case where the contact angle is measured using a contact angle measuring device (CAX-150 manufactured by Kyowa Interface Science) under the following conditions. • Syringe used: glass, 1 mL • Needle: 23 gauge • Liquid volume: 1 μL • Measurement time: after 3.1 seconds
120 mg of an edaravone drug substance (D50: 37 μm, D90: 143 μm) was compression-molded using a single-punch tableting machine (Compaction Analyzer) (punch: flat punch having a diameter of 8 mm; tableting pressure: 800 kgf), and an edaravone tablet for contact angle measurement was obtained.
Edaravone saturated aqueous solutions in which drug product additives described in the following table that are substances having a function capable of dispersing solid particles in a liquid were dissolved 0.1% (w/v) therein were prepared at a room temperature, and contact angles with respect to the edaravone tablet prepared above were measured using a contact angle measurement device (Kyowa Interface Science, Inc., CAX-150). […]

| Compound | Dispersion State of Edaravone [1] | Transmission Scattering light Intensity ΔT % [1] [%] | Contact Angle [2] [degrees] |
| --- | --- | --- | --- |
| OC[C@@H](O)[C@@H](O)[C@H](O)[C@@H](O)CO [D-sorbitol] | not dispersed | 0.000 | 83.3 |
| Polysorbate 80 | dispersed | 6.151 | 53.1 |
